Laboratory results: patent publication US20260220796A1, “Systems and Methods for High Throughput Single Molecule Tracking in Living Cells” (EIKON THERAPEUTICS, INC., priority 2022, published 2026)
Entries after “also recorded” stand apart in the source; their conditions may differ. Where two headings read alike, the source gives them in different places. Values belong to the compound of their own block, whether it stands above or below them.

How the values were obtained:
[1] = target: T1, Estrogen Receptor (ER) (Homo sapiens, UniProt P03372); test: htSMT of Halo-ER in U2OS cells (fbound, Dfree); type: cell-based; details: for change in ER fbound (direction): follow-up of screen actives, dose titration or 100 nM
T1 construct: expressed in transfected cells
T1 sequence (P03372 1-595): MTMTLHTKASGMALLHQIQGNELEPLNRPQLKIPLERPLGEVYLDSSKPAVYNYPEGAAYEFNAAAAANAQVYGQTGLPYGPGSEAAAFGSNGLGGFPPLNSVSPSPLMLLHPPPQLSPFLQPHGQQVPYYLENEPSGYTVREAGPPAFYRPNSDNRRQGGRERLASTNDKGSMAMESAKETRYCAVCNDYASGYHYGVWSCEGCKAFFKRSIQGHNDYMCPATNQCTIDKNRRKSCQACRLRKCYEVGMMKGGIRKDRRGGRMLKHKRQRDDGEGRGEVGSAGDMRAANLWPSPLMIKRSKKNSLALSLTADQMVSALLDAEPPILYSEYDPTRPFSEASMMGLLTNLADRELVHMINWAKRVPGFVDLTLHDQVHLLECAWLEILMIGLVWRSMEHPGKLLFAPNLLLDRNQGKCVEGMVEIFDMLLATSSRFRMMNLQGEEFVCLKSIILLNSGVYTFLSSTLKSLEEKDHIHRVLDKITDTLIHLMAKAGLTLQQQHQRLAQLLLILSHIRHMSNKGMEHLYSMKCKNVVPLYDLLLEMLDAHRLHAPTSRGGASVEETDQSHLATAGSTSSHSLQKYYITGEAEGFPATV

[2] = target: T2, glucocorticoid receptor (GR) (Homo sapiens, UniProt P04150); test: htSMT of Halo-GR in U2OS cells; type: cell-based; details: 1 μM antagonist, singly or with cognate agonist, FIG. 36D
T2 construct: Because U2OS cells express GR endogenously, HaloTag was inserted right before the stop codon of endogenous NR3C1; endogenous in cells; host or cells: U2OS, CRISPR/Cas9 HaloTag knock-in at the endogenous NR3C1 locus
T2 sequence (P04150 1-777): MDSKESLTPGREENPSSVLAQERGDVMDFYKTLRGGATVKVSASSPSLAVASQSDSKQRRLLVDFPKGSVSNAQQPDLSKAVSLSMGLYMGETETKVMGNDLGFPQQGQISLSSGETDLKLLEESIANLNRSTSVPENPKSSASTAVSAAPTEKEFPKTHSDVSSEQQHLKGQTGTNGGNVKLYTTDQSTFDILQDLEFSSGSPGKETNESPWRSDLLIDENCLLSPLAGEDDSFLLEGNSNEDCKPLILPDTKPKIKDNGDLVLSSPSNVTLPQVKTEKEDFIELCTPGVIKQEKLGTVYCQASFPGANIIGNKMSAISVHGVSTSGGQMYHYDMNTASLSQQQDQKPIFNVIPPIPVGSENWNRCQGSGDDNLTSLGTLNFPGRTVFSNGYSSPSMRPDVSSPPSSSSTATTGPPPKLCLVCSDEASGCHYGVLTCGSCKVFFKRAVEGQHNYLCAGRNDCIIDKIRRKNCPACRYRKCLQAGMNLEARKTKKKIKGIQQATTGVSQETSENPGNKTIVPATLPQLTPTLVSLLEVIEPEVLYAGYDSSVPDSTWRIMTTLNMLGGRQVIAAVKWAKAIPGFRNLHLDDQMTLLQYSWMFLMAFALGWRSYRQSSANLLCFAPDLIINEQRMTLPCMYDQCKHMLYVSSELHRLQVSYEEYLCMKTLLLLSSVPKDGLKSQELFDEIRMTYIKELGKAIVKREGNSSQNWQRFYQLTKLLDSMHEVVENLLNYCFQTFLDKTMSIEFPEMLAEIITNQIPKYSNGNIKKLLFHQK
Text: Where appropriate, compounds were serially diluted in an Echo Qualified 384-Well Low Dead Volume Source Microplate (0018544, Beckman Coulter) to generate dose-titration source material.

[3] = target: androgen receptor (AR) (Homo sapiens, UniProt P10275)
Sequence of androgen receptor (AR) (P10275 whole entry): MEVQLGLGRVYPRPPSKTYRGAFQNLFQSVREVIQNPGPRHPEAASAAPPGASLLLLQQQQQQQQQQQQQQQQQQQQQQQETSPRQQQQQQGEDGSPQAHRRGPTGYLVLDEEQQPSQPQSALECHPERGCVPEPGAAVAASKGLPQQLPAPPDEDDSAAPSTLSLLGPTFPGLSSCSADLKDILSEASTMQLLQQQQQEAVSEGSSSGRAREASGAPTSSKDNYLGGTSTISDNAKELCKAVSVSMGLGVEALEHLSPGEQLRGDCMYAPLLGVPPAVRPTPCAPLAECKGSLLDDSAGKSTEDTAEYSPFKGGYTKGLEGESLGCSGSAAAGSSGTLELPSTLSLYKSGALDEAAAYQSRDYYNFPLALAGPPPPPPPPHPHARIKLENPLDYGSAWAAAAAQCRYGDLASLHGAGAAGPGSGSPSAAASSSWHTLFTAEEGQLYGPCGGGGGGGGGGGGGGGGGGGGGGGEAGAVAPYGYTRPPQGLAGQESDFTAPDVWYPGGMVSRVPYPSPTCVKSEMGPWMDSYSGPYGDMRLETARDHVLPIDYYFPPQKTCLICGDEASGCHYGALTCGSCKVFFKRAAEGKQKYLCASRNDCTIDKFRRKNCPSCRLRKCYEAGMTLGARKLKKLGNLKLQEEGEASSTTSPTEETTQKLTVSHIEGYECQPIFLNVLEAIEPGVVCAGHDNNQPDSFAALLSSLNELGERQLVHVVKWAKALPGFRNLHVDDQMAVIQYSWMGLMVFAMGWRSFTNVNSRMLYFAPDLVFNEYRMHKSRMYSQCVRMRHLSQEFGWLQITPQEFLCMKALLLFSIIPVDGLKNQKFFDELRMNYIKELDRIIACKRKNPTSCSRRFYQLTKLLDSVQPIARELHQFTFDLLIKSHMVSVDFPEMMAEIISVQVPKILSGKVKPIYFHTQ

[4] = target: T1, Estrogen Receptor (ER); test: kinetic SMT (kSMT) of ER after compound addition; type: cell-based; details: FIG. 18C, 18D
[5] = target: T3, ER (Homo sapiens, UniProt P03372); test: Western blot of ER after compound treatment; type: cell-based; details: 24 hours prior to lysis; MCF7, T47d, U2OS Halo-ER; FIG. 22A
T3 construct: host or cells: Halo-ER U2OS, MCF7 or T47d (immunofluorescence)
T3 sequence (P03372 1-595): T1 sequence (P03372 1-595)

[6] = target: T1, Estrogen Receptor (ER); test: residence time imaging of ER-Halo (track length survival); type: cell-based; details: 100 nM, versus DMSO, FIG. 18E

Compound: 4-hydroxytamoxifen
- change in ER fbound / ER movement in bioactive screen [1]: significantly increased fbound
- maximal increase in fbound, compared [1]: lower maximal increases in fbound

Compound: CC(O)c1cc(C(=O)N[C@@H](C)Cn2ccc(-c3ccc(C#N)c(Cl)c3)n2)[nH]n1 (stereo partly shown) [Darolutamide]
- effect on AR chromatin binding (change in fbound) [3]: decrease in chromatin binding

Compound: CC(C)C[C@H](NC(=O)[C@H](Cc1ccccc1)NC(=O)c1cnccn1)B(O)O [bortezomib]
- time course of overall effect on ER movement [4]: slowly increasing over the four-hour measurement window

Compound: CC(C)C[C@H](NC(=O)[C@H](CCc1ccccc1)NC(=O)CN1CCOCC1)C(=O)N[C@@H](Cc1ccccc1)C(=O)N[C@@H](CC(C)C)C(=O)[C@@]1(C)CO1 [carfilzomib]
- time course of overall effect on ER movement [4]: slowly increasing over the four-hour measurement window

Continued, in another order:

- effect on GR chromatin binding (change in fbound) [2]: decrease in chromatin binding
Compound: CN(C)c1ccc(C(c2ccc(N(C)C)cc2)c2cc([N+](=O)[O-])ccc2Cl)cc1 [AL082D06]

- change in ER fbound (direction) [1]: increase in fbound
- time course of overall effect on ER movement [4]: reached a plateau after an hour
Compound: COc1cccc(-c2cc(F)ccc2[C@H]2Cc3nc(N)nc(C)c3C(=O)N2)n1 [HSP990]

- ER degradation (western blot) [5]: leads to the degradation of ER
Compound: C[C@]12CC[C@@H]3c4ccc(O)cc4C[C@@H](CCCCCCCCC[S+]([O-])CCCC(F)(F)C(F)(F)F)[C@H]3[C@@H]1CC[C@@H]2O (stereo partly shown) [fulvestrant]
- change in ER fbound / ER movement in bioactive screen ([1]; 1 μM compound versus DMSO, 5,067-molecule screen, FIG. 15, 18A): increase in fbound; also recorded: significantly increased fbound

- change in ER fbound (direction) [1]: increase in fbound
- time course of overall effect on ER movement [4]: reached a plateau after an hour
Compound: CC(C)c1cc(-c2n[nH]c(=O)n2-c2ccc3c(ccn3C)c2)c(O)cc1O [ganetespib]
- decrease in total number of long binding events [6]: four
